Laboratory results: PMC10322960 (European Journal of Drug Metabolism and Pharmacokinetics, 2023)

Assay: Phase 1 clinical drug–drug interaction study, safety assessment
Format: in vivo, human
Conditions: Cohort 1, 12 subjects; mild in severity

## CCC(C)n1ncn(-c2ccc(N3CCN(c4ccc(OCC5COC(Cn6cncn6)(c6ccc(Cl)cc6Cl)O5)cc4)CC3)cc2)c1=O (centres unmarked) [itraconazole, reference compound]
  number of treatment-emergent AEs considered related to the drug: 5
  subjects with treatment-emergent AEs considered related to the drug: 16.7%
